From US9725439B2, “Quinazoline derivative and preparation method therefor” (CHIA TAI TIANQING PHARMACEUTICAL GROUP CO., LTD., priority 2013, dated 2017)

How the values were obtained:
[1] = system: BT474, a human breast cancer cell line; test: Proliferation test of anchorage-independent cells; format: cell-based; conditions: BT-474, 168 h, BT474, soft agarose, 7 days, CellTiter-Blue
Protocol: (§1) 2. Proliferation Test of Anchorage-Independent Cells
(§2) NCI-H1975, a human non-small cell lung cancer cell, and BT474, a human breast cancer cell line, were incubated with RPIM-1640 or DMEM medium supplemented with 10% fetal bovine serum (FBS) in a cell incubator (37° C., 5% CO2). In the test of the compounds, the coated substrate with a concentration of 0.6% was used. The cells were screened with 0.3% low melting point agarose, then plated into 96-well plates with a density of 10,000 cells per well (100 μL). Starting from 10 mM, the compounds were diluted in a gradient of 3 times. For each concentration, 2 μL of the solution was taken and added into 98 μL of medium, then 5.3 μL of the mixture was added into the cell culture medium (where the final concentration of DMSO was 0.1%, v/v). After one week (7 days) of treatment, 20 μL of CellTiter-Blue®reagent (Promega) was added, incubated at 37° C. for 4 h. The fluorescent signal was read on Envison (Perkin Elmer).

[2] = system: NCI-H1975, a human non-small cell lung cancer cell; test: Proliferation test of anchorage-independent cells; format: cell-based; conditions: 168 h, NCI-H1975, soft agarose, 7 days, CellTiter-Blue
Protocol: as §1, §2

HER2 = HER2 (Homo sapiens (Human), UniProt P04626); test: In vitro enzymology test (HTRF kinase activity); format: biochemical; conditions: read-out: Enzyme activity (IC50 nM) HER2
Excerpt: 1. The Method for In Vitro Enzymology Test
EGFR, EGFR (T790M, L858R), HER2 kinase were expressed and purified through an insect cell expression system by the Department of Biology, Centaurus Biopharma, Beijing, or purchased from commercially available products.
The platform for testing the kinase activity of EGFR, EGFR (T790M, L858R) and HER2 was established based on the homogeneous time-resolved fluorescence (HTRF) method provided by Cisbio Bioassays, and the activity of the compounds was determined with the platform. […]. And 2.5 μL of the mixture was taken, added into 384-well plates (OptiPlate-384, PerkinElmer), then 2.5 μL of kinase was added, mixed thoroughly by centrifuge. Then 5 μL of ATP and TK Substrate-biotin were added to initiate the reaction. The 384-well plates were incubated at 23° C. in an incubator for a certain period of time, then 5 μL of Eu3^+-Cryptate labeled TK-Antibody and 5 μL of streptavidin-XL665 were added to stop the reaction. After 1 h incubation in an incubator, the fluorescence value was read on Envision (PerkinElmer). The IC50 value of the compound was calculated with the software GraphPad Prism 5.0.

[3] = Pharmacokinetics test on rats; format: in vivo; conditions: rat, po; male rats, gavage, single dose 5 mg/kg, plasma
Protocol: Pharmacokinetics Test on Rats
In this study, 6 healthy adult male rats (from Beijing Vital River Laboratory Animal Technology Co., Ltd.) were used. The animals were fast overnight before the experiment. The fasting period was from 12 h prior to the administration, till 4 h after the administration. Drug administration was performed through gavage at a single dose of 5 mg/kg. The compounds to be tested were dissolved in 20% aqueous solution of sulfobutyl-β-cyclodextrin (SBE). Blood samples were collected 0.25, 0.5, 1, 2, 4, 6, 8 and 24 hours after drug administration. During blood sampling, the animals were lightly anesthetized with isoflurane, and approximately 0.5 mL whole blood was collected from retro-orbital venous sinus, placed into tubes that contain heparin as anticoagulant. The samples were centrifuged at 4° C., 4000 rpm for 5 min. The plasma was transferred into centrifuge tubes, and stored at −80° C. till being analyzed. The drug concentration in the plasma was quantitatively analyzed with liquid chromatography-tandem mass spectrometry (LC-MS/MS). From the analysis result of the samples, the pharmacokinetic parameter of the compounds was calculated with WinNonlin (WinNonlin Professional, version […]).

Chain of HER2 (P04626 23-1255): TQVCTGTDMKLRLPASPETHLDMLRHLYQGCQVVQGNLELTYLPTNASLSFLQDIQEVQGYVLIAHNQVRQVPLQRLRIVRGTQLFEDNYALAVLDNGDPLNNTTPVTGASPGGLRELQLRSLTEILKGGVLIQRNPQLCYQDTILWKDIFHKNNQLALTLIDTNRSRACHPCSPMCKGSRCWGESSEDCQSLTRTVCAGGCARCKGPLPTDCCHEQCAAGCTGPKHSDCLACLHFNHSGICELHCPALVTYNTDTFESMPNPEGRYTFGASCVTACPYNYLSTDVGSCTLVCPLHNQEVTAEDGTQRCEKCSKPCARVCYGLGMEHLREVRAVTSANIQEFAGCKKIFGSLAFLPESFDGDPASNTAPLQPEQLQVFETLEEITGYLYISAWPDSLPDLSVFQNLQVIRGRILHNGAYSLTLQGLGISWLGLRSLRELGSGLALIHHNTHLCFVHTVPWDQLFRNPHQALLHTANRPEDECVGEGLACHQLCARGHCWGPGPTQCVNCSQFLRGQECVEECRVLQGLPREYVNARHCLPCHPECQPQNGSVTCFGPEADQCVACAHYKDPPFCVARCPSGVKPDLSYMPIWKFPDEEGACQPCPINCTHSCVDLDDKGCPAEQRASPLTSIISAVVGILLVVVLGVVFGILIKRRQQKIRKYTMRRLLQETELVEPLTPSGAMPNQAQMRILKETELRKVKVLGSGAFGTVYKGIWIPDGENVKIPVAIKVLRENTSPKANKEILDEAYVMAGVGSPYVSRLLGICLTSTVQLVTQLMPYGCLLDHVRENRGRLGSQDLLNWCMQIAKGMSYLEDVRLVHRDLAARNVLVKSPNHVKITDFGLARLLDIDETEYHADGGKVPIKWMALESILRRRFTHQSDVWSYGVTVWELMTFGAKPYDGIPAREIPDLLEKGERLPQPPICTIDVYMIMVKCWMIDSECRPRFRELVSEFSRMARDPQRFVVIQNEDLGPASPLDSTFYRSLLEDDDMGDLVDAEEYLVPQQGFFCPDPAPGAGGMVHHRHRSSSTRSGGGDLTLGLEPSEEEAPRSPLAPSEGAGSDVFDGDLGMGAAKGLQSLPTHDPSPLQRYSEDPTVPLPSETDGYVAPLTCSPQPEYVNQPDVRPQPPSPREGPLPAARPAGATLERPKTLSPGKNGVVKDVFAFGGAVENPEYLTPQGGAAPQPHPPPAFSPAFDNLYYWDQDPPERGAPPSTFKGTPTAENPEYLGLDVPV

Row | Structure (SMILES) | IC50 [1] [nM] | IC50 [2] [nM] | IC50 (HER2) [nM] | AUC(0-inf) [3] [ng·h/mL] | Cmax [3] [ng/mL] | Tmax [3] [h] | half-life [3] [h]
1 | C=CC(=O)N1CC(Nc2cc3c(Nc4ccc(F)c(Cl)c4)ncnc3cc2OC)C1 [Example 1, N^6-(1-acryloylazetidin-3-yl)-N^4-(3-chloro-4-fluorophenyl)-7-methoxyquinazoline-4,6-diamine] | 4.2 | 21.8 | 0.5 | 1350 | 588 | 0.5 | 1.3
2 | C=CC(=O)N1CCC(Nc2cc3c(Nc4ccc(F)c(Cl)c4)ncnc3cc2OC)CC1 [Example 2, N^6-(1-acryloylpiperidin-4-yl)-N^4-(3-chloro-4-fluorophenyl)-7-methoxyquinazoline-4,6-diamine] | 2.1 | 14 | 0.2 | 11000 | 1970 | 1 | 2.39
3 | C=CC(=O)N1CC(Nc2cc3c(Nc4ccc(F)c(Cl)c4)ncnc3cc2O[C@H]2CCOC2)C1 [Example 3, (S)—N^6-(1-acryloylazetidin-3-yl)-N^4-(3-chloro-4-fluorophenyl)-7-(tetrahydrofuran-3-yloxy)quinazoline-4,6-diamine] | 5.1 | 31.4 | 0.3 |  |  |  | 
4 | C=CC(=O)N1CCC(Nc2cc3c(Nc4ccc(F)c(Cl)c4)ncnc3cc2O[C@H]2CCOC2)CC1 [Example 4, (S)—N^6-(1-acryloylpiperidin-4-yl)-N^4-(3-chloro-4-fluorophenyl)-7-(tetrahydrofuran-3-yloxy)quinazoline-4,6-diamine] | 1.6 | 25.6 | 0.4 |  |  |  | 
5 | C=CC(=O)N1CCC(Nc2cc3c(Nc4ccc(OCc5ccccn5)c(Cl)c4)ncnc3cc2OC)CC1 [Example 8, 1-(4-(4-(3-chloro-4-(pyridin-2-ylmethoxy)phenylamino)-7-methoxyquinazoline-6-ylamino)piperidin-1-yl)prop-2-ene-1-one] | 62.1 | 244 | 1.2 |  |  |  | 
6 | C=CC(=O)N1CC(Nc2cc3c(Nc4cccc(C(C)=O)c4)ncnc3cc2OC)C1 [Example 13, N^4-(3-acetylphenyl)-N^6-(1-acryloylazetidin-3-yl)-7-methoxyquinazoline-4,6-diamine] |  |  | 0.5 |  |  |  | 
7 | C=CC(=O)N1CC(Nc2cc3c(Nc4cccc(Br)c4)ncnc3cc2OC)C1 [Example 14, N^6-(1-acryloylazetidin-3-yl)-N^4-(3-bromophenyl)-7-methoxyquinazoline-4,6-diamine] | 4.6 | 59.3 | 0.2 |  |  |  | 
8 | C=CC(=O)N1CCC(Nc2cc3c(Nc4cccc(Br)c4)ncnc3cc2OC)CC1 [Example 15, N^6-(1-acryloylpiperidin-4-yl)-N^4-(3-bromophenyl)-7-methoxyquinazoline-4,6-diamine] | 4.2 | 56 | 0.2 |  |  |  | 
9 | C=CC(=O)N1CC(Nc2cc3c(Nc4ccc(F)c(Cl)c4)ncnc3cc2OCCOC)C1 [Example 16, N^6-(1-acryloylazetidin-3-yl)-N^4-(3-chloro-4-fluorophenyl)-7-(2-methoxyethoxy)quinazoline-4,6-diamine] | 8.7 | 32.4 | 0.3 |  |  |  | 
10 | C=CC(=O)N1CCC(Nc2cc3c(Nc4ccc(F)c(Cl)c4)ncnc3cc2OCCOC)CC1 [Example 17, N^6-(1-acryloylpiperidin-4-yl)-N^4-(3-chloro-4-fluorophenyl)-7-(2-methoxyethoxy)quinazoline-4,6-diamine] | 4.7 | 71.5 | 0.4 |  |  |  | 
11 | C=CC(=O)N1CC(Sc2cc3c(Nc4ccc(F)c(Cl)c4)ncnc3cc2OC)C1 [Example 19, 6-(1-acryloylazetidin-3-yl)-thio-N-(3-chloro-4-fluorophenyl)-7-methoxyquinazoline-4-amine] | 97.1 | 274 |  |  |  |  | 
